Here are results for 2 molecules from paper PMC3729023 (Journal of the American Chemical Society, 2012).

One series has as its target Src. As to the kind of experiment: Src kinase assay. As to conditions: read-out: IC50 (inactive up to); Src pretreated 30 min in the presence of 0.25 mM ATP prior to initiating the kinase reaction. The format is biochemical.
A further series deals with endogenous Fyn (Homo sapiens, UniProt P06241). As to the kind of experiment: Competitive profiling with probe 1 in Jurkat cells: Fyn. It is filed as cell-based. As to conditions: inhibitor at 300 nM, then 1 (1 µM, 15 min).
Sequence of endogenous Fyn (P06241 1-534 isoform P06241-2): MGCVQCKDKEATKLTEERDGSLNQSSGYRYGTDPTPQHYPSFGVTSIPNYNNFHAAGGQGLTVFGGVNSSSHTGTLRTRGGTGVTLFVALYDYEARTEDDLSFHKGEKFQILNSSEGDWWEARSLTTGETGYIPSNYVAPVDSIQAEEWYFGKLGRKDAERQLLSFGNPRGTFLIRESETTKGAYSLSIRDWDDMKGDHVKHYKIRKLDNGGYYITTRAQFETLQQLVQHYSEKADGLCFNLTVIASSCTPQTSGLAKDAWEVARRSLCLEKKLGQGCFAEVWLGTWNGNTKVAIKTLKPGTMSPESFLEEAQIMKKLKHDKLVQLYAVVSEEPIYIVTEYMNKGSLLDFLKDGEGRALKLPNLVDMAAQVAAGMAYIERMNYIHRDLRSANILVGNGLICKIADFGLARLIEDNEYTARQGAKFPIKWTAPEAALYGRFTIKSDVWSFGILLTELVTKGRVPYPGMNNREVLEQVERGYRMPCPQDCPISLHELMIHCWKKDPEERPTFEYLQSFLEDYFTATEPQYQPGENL
For another series, the target named is endogenous Lck (Homo sapiens, UniProt P06239). As to the kind of experiment: Competitive profiling with probe 1 in Jurkat cells: Lck. As to conditions: inhibitor at 300 nM, then 1 (1 µM, 15 min). It is filed as cell-based.
Sequence of endogenous Lck (P06239 whole entry): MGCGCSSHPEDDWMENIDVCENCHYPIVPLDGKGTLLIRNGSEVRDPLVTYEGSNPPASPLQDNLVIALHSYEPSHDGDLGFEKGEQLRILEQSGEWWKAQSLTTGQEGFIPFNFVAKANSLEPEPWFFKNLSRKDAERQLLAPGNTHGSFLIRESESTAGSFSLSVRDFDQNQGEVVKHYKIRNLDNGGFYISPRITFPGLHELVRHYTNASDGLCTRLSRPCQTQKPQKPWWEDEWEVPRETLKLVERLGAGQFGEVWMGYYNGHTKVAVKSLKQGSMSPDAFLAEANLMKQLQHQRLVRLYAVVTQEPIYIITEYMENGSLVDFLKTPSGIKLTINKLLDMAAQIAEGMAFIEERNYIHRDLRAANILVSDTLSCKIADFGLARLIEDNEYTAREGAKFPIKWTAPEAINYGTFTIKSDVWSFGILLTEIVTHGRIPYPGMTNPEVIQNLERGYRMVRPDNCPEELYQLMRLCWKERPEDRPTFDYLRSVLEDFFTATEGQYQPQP
For a further series, the target named is endogenous Blk (Homo sapiens, UniProt P51451). As to the kind of experiment: Competitive profiling with probe 1 in Jurkat cells: Blk. It is filed as cell-based. As to conditions: inhibitor at 300 nM, then 1 (1 µM, 15 min).
Sequence of endogenous Blk (P51451 whole entry): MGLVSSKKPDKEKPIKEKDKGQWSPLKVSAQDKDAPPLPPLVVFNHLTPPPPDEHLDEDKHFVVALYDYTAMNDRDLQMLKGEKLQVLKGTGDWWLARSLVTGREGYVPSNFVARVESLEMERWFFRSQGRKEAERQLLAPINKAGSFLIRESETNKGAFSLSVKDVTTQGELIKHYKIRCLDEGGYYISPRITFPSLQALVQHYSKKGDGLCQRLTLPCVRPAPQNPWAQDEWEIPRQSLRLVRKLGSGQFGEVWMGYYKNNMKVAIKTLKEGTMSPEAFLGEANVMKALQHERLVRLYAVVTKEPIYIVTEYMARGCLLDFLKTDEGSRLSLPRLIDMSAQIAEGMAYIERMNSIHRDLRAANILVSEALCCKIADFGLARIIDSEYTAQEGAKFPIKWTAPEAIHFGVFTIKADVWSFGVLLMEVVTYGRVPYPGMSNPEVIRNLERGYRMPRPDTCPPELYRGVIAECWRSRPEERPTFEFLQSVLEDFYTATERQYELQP
A further series concerns the target endogenous Src (Homo sapiens, UniProt P12931). Particulars: Jurkat cells, inhibitor at 300 nM, then 1 (1 µM, 15 min).
The conditions of series [1]: in humans; cited from earlier work.

Sequence of endogenous Src (P12931 whole entry): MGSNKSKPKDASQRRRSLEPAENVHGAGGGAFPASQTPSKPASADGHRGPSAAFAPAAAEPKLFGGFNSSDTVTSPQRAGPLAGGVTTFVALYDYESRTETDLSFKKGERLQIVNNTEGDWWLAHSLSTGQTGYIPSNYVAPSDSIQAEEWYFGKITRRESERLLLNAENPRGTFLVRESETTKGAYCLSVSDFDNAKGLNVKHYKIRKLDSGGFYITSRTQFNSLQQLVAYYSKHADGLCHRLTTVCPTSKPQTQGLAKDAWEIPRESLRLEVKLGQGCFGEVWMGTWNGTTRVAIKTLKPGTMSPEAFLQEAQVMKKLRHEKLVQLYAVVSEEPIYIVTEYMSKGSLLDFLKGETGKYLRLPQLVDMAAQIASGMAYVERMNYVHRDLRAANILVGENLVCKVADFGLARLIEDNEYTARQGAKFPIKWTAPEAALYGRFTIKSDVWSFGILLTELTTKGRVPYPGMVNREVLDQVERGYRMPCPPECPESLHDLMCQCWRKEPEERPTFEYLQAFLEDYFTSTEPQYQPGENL

For the molecule `Nc1ncnc2c1ncn2[C@@H]1O[C@H](COC(=O)c2ccc(S(=O)(=O)F)cc2)[C@@H](O)[C@H]1O` [FSBA, p-fluorosulfonylbenzoyl adenosine], the IC50 on Src is > 10 µM.

`Cc1ccc(C(=O)Nc2ccc(CN3CCN(C)CC3)c(C(F)(F)F)c2)cc1C#Cc1cnc2cccnn12` [ponatinib]: the “labeling of endogenous Fyn by 1” value on endogenous Fyn is “unaffected”. In addition, at endogenous Lck, the “labeling of endogenous Lck by 1” value is reported as “abrogated labeling”. Also, the “labeling of endogenous Blk by 1” value on endogenous Blk was “abrogated labeling”. In addition, the “labeling of endogenous Src by 1” value at endogenous Src was “unaffected”. The mean steady-state concentrations in series [1] was 75 to 180 nM.

The term IC50 denotes the point on the concentration scale where inhibition reaches its midpoint.
